From US20130095038A1, “PARTICLES, AND PHOTOACOUSTIC IMAGING CONTRAST AGENT AND SLN CONTRAST AGENT INCLUDING THE PARTICLES” (CANON KABUSHIKI KAISHA, priority 2011, published 2013)

Test system: mouse popliteal lymph nodes
Assay: Evaluation of accumulation in SLN
Format: in vivo
Procedure: Migration to SLN was evaluated using mouse popliteal lymph nodes. A probe was administered to a mouse from the sole of the hindlimb, and accumulation in the popliteal lymph nodes was evaluated as a model of evaluation of accumulation in SLN. Ten microliters of a sample was subcutaneously administered to a mouse from the sole of the hindlimb, and after 24 hours, mouse popliteal lymph nodes were harvested. The harvested mouse popliteal lymph nodes were crushed, and the absorbance of the extract from the crushed lymph nodes was measured. The accumulation rate was calculated based on the following expression:
Accumulation rate=[(absorbance of the extracted mouse popliteal lymph nodes)/(absorbance of the sample in an amount equivalent to the administered amount)]×100.
The accumulation ratios, to SLN, of the photoacoustic imaging contrast agents prepared in Examples B1 to B6 and reagents prepared in Comparative Examples B1 and B2 were calculated according to the above-described evaluation examples for accumulation in SLN. In Table B1, the accumulation ratio means an accumulation rate of each photoacoustic imaging contrast agent or the ICG-albumin complex when the accumulation rate of the ICG aqueous solution used in Comparative Example B1 is assumed as 1.

Structure (SMILES): CC1(C)C(/C=C/C=C/C=C/C=C2/N(CCCCS(=O)(=O)[O-])c3ccc4ccccc4c3C2(C)C)=[N+](CCCCS(=O)(=O)[O-])c2ccc3ccccc3c21.[Na+] [ICG, indocyanine green]
- Accumulation ratio (accumulation rate relative to ICG aqueous solution = 1, 10 μL subcutaneous, sole of hindlimb, 24 hours, absorbance at 790 or 800 nm): 1
- Accumulation in SLN (in words) (mouse, in vivo): low
